Laboratory results reported in paper PMC3170910, “Screening of Supports for the Immobilization of β-Glucosidase” (Enzyme Research, 2011).

System: T1, β-glucosidase
T1 construct: gene beta-D-glucoside glucohydrolase; not purified to one protein, isoenzyme not defined
Assay: p-nitrophenol release at […] nm; nonlinear fit (Solver)
Type: biochemical, Aspergillus sp.
Conditions: free enzyme, partially purified extract; acetate buffer, optimal pH (4.5) and temperature (65 °C optimum)

## O=[N+]([O-])c1ccc(O[C@@H]2O[C@H](CO)[C@@H](O)[C@H](O)[C@H]2O)cc1 [4-Nitrophenyl-β-D-glucopyranoside]
  Km: 1.6 mM
